Test results published in ChEMBL document CHEMBL2163341, “Discovery of MK-7725, A Potent, Selective Bombesin Receptor Subtype-3 Agonist for the Treatment of Obesity” (ACS Med Chem Lett, 2012).
Calls of active or inactive are those of the source. The rule behind the calls is not given here.

What was measured:
Mus musculus [1] = experiment: Increase of core body temperature in DIO mouse assessed as AUC (1 to 6 hrs) of body temperature changes at 3 mg/kg by fasted temperature PD assay; format: functional
[2] = molecular target: T1, Nuclear receptor subfamily 1 group I member 2 (Homo sapiens, UniProt O75469); experiment: Activation of PXR at 10 uM
T1 sequence (O75469 whole entry): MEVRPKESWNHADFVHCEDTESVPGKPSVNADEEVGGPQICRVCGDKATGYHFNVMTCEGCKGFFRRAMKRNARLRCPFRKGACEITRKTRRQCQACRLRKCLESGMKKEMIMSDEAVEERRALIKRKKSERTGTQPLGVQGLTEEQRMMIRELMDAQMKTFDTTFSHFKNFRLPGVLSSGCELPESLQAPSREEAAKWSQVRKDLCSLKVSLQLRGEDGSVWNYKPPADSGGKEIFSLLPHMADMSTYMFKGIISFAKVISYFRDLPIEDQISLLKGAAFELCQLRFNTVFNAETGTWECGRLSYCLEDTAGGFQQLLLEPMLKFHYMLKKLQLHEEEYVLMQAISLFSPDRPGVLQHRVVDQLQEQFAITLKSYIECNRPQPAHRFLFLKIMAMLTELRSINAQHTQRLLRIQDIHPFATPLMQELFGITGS

[3] = molecular target: T2, Bombesin receptor subtype-3 (Homo sapiens) (UniProt P32247); experiment: Agonist activity at human BRS-3 expressed in HEK293AEQ cells assessed as bioluminescence for 10 mins by aequorin bioluminescence assay relative to dY-peptide; format: functional, cell-based
T2 sequence (whole entry): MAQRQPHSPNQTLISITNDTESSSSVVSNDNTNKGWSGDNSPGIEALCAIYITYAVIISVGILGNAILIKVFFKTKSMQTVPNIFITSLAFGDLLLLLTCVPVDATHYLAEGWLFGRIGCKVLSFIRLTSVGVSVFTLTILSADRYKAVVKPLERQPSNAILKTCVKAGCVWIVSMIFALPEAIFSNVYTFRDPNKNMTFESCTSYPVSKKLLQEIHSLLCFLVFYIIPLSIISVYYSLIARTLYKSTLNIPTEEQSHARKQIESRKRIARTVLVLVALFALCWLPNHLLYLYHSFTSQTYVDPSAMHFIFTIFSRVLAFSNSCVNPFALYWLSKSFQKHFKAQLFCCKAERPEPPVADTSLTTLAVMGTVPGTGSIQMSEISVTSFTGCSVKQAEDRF

[4] = molecular target: T3, Bombesin receptor subtype-3 (Mus musculus, UniProt O54798); experiment: Agonist activity at mouse BRS-3 expressed in HEK293AEQ cells assessed as bioluminescence for 10 mins by aequorin bioluminescence assay; format: functional, cell-based
T3 sequence (O54798 whole entry): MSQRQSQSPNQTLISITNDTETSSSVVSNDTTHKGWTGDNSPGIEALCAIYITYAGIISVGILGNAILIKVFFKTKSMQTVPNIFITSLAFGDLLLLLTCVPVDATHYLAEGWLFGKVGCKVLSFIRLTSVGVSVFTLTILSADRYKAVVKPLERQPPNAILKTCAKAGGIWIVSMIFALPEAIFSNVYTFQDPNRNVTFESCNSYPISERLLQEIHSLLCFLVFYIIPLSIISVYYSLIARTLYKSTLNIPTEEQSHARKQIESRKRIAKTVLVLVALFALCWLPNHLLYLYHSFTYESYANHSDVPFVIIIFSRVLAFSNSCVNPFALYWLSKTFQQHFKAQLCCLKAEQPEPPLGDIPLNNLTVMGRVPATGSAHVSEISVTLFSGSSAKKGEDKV

[5] = molecular target: T4, Bombesin receptor subtype-3 (Homo sapiens, UniProt P32247); experiment: Displacement of [125I]-dY-peptide from human BRS-3 expressed in NFAT-CHO cells after 2 hrs by liquid scintillation counting; format: cell-based
T4 sequence (P32247 whole entry): T2 sequence (whole entry)

[6] = molecular target: T1, Nuclear receptor subfamily 1 group I member 2; experiment: Activation of PXR
[7] = molecular target: T4, Bombesin receptor subtype-3; experiment: Agonist activity at human BRS-3 expressed in HEK293AEQ cells assessed as bioluminescence for 10 mins by aequorin bioluminescence assay; format: functional, cell-based
[8] = molecular target: T5, Bombesin receptor subtype-3 (Mus musculus) (UniProt O54798); experiment: Agonist activity at mouse BRS-3 expressed in HEK293AEQ cells assessed as bioluminescence for 10 mins by aequorin bioluminescence assay relative to dY-peptide; format: functional, cell-based
T5 sequence (whole entry): T3 sequence (O54798 whole entry)

Rattus norvegicus [9] = experiment: Dose normalized AUC in Sprague-Dawley rat at 1 mg/kg, po; format: ADME, organism-based; set-up: dose 1 mg/kg, route oral; conditions: in vivo
[10] = Plasma clearance in Sprague-Dawley rat at 0.5 mg/kg, iv; format: ADME, organism-based; set-up: dose 0.5 mg/kg, route intravenous
[11] = Half life in Sprague-Dawley rat at 0.5 mg/kg, iv; format: ADME, organism-based; set-up: dose 0.5 mg/kg, route intravenous; conditions: in vivo
[12] = Oral bioavailability in Sprague-Dawley rat at 1 mg/kg; format: ADME, organism-based; conditions: in vivo
Rattus norvegicus [13] = experiment: Antiobesity activity in DIO Sprague-Dawley rat assessed as reduction of body weight at 3 mg/kg, po administered bid for 12 days; format: functional; set-up: scale not given: the % may be the effect or the level left
Canis familiaris [14] = experiment: Antiobesity activity in obese Beagle dog assessed as reduction of body weight at 5 to 15 mg/kg, po administered for 7 days relative to control; format: functional, Canis lupus familiaris; set-up: scale not given: the % may be the effect or the level left; conditions: dose mg/kg 5-15
[15] = Plasma clearance in dog at 0.5 mg/kg, iv; format: ADME, organism-based, Canis lupus familiaris; set-up: dose 0.5 mg/kg, route intravenous
[16] = Half life in rhesus monkey at 0.5 mg/kg, iv; format: ADME, organism-based, Macaca mulatta; set-up: dose 0.5 mg/kg, route intravenous; conditions: in vivo
[17] = Plasma clearance in rhesus monkey at 0.5 mg/kg, iv; format: ADME, organism-based, Macaca mulatta; set-up: dose 0.5 mg/kg, route intravenous
Mus musculus [18] = experiment: Antiobesity activity in po dosed wild type DIO C57 mouse assessed as reduction of food intake; format: functional, organism-based
Mus musculus [19] = experiment: Antiobesity activity in po dosed wild type DIO C57 mouse assessed as reduction of body weight; format: functional, organism-based
Rattus norvegicus [20] = experiment: Antiobesity activity in DIO Sprague-Dawley rat assessed as reduction of body weight at 50 mg/kg, po administered bid for 12 days; format: functional; set-up: scale not given: the % may be the effect or the level left
Rattus norvegicus [21] = experiment: Toxicity in DIO Sprague-Dawley rat assessed as tachyphylaxis at 15 to 50 mg/kg, po administered bid for 12 days; format: organism-based; set-up: dose 15-50 mg/kg, route oral; conditions: in vivo, 288 h
Rattus norvegicus [22] = experiment: Antiobesity activity in DIO Sprague-Dawley rat assessed as increase in metabolic rate at 15 to 50 mg/kg, po administered bid for 12 days; format: functional, organism-based
Mus musculus [23] = experiment: Antiobesity activity in BRS-3 knock out DIO C57BL/6 mouse assessed as reduction of food intake at 100 mg/kg, po after 18 hrs; format: functional, organism-based; set-up: dose 100 mg/kg
Rattus norvegicus [24] = experiment: Antiobesity activity in DIO Sprague-Dawley rat assessed as reduction of body weight at 15 mg/kg, po administered bid for 12 days; format: functional; set-up: scale not given: the % may be the effect or the level left
Rhesus monkey = experiment: Dose normalized AUC in rhesus monkey at 1 mg/kg, po; format: ADME, organism-based, Macaca mulatta; set-up: dose 1 mg/kg, route oral; conditions: in vivo
[25] = Oral bioavailability in dog at 1 mg/kg; format: ADME, organism-based, Canis lupus familiaris; conditions: in vivo
[26] = Half life in dog at 0.5 mg/kg, iv; format: ADME, organism-based, Canis lupus familiaris; set-up: dose 0.5 mg/kg, route intravenous; conditions: in vivo
[27] = Oral bioavailability in rhesus monkey at 1 mg/kg; format: ADME, organism-based, Macaca mulatta; conditions: in vivo
Canis familiaris [28] = experiment: Dose normalized AUC in dog at 1 mg/kg, po; format: ADME, organism-based, Canis lupus familiaris; set-up: dose 1 mg/kg, route oral; conditions: in vivo

Compound	Activity (Mus musculus [1])	Activity [2]	Activity [3]	EC50 [4]	IC50 [5]	EC50 [6]	EC50 [7]	Activity [8]	AUC/dose (Rattus norvegicus [9])	clearance [10]	half-life [11]	bioavailability [12]	also measured
CC(C)(C)c1ccc(S(=O)(=O)N2Cc3ccc(C(F)(F)F)nc3Nc3cccc(-c4cccnc4)c32)cc1	-0.99 degreeC.hr	77%	99%	0.058 µM	0.00172 µM	1.8 µM	0.042 µM	105%	–	–	–	–	–
CC(C)(C)c1ccc(S(=O)(=O)N2Cc3ccc(C(F)(F)F)nc3Nc3cccc(-c4noc(CO)n4)c32)cc1	2.6 degreeC.hr	78%	102%	0.093 µM	0.0007 µM	3.5 µM	0.056 µM	114%	0.39 µM·kg·h/mg	22 mL/min/kg	1.7 h	29%	–
Cn1cc(-c2cccc3c2N(S(=O)(=O)c2ccc(C(C)(C)C)cc2)Cc2ccc(C(F)(F)F)nc2N3)cn1	0.2 degreeC.hr	50%	95%	0.102 µM	0.00076 µM	1.1 µM	0.063 µM	110%	–	–	–	–	–
CC(C)c1ccc(S(=O)(=O)N2Cc3ccc(C(F)(F)F)nc3Nc3cccc(-c4noc(C(C)(C)O)n4)c32)cc1	4.93 degreeC.hr	80%	–	0.147 µM	0.0017 µM	2.4 µM	–	114%	–	49 mL/min/kg	1.6 h	8%	–
CC(C)(C)c1ccc(S(=O)(=O)N2Cc3ccc(C(F)(F)F)nc3Nc3cccc(C4CCNCC4)c32)cc1	-0.74 degreeC.hr	37%	101%	0.115 µM	0.0014 µM	6.6 µM	0.114 µM	129%	–	–	–	–	–
CCNC(C)Cc1cccc(C(F)(F)F)c1 (stereo unspecified) [FENFLURAMINE]	–	–	–	–	–	–	–	–	–	–	–	–	Activity (Rattus norvegicus [13]): 6.2%
CC(C)(O)c1nc(-c2cccc3c2N(S(=O)(=O)c2ccc(C(F)(F)F)cc2)Cc2ccc(C(F)(F)F)nc2N3)no1	5.22 degreeC.hr	6%	–	0.095 µM	0.0083 µM	> 30 µM	–	97%	1.05 µM·kg·h/mg	33 mL/min/kg	2.5 h	100%	–
C[C@H](O)c1nc(-c2cccc3c2N(S(=O)(=O)c2ccc(C(C)(C)C)cc2)Cc2ccc(C(F)(F)F)nc2N3)no1	3.7 degreeC.hr	9%	102%	0.089 µM	0.0012 µM	> 10 µM	0.052 µM	109%	0.34 µM·kg·h/mg	86 mL/min/kg	2.1 h	14%	–
CC(C)(C)c1ccc(S(=O)(=O)N2Cc3ccc(C(F)(F)F)nc3Nc3cccc(-c4ncon4)c32)cc1	2.1 degreeC.hr	53%	102%	0.057 µM	0.0011 µM	11.8 µM	0.04 µM	116%	–	–	–	–	–
CC(C)(C)c1ccc(S(=O)(=O)N2Cc3ccc(C(F)(F)F)nc3Nc3cccc(-c4noc(C(C)(C)O)n4)c32)cc1	2.6 degreeC.hr	13%	106%	0.083 µM	0.0009 µM	> 10 µM	0.052 µM	117%	0.65 µM·kg·h/mg	44 mL/min/kg	1.9 h	14%	–
Cc1ccc2c(c1C)N(S(=O)(=O)c1ccc(C(C)(C)C)cc1)Cc1ccc(C(F)(F)F)nc1N2	–	42%	–	–	–	–	–	–	–	–	–	–	–
CC(C)(C)c1ccc(S(=O)(=O)N2Cc3ccc(C(F)(F)F)nc3Nc3cccc(-c4noc(=O)[nH]4)c32)cc1	-0.52 degreeC.hr	42%	104%	0.076 µM	0.029 µM	1.9 µM	0.077 µM	105%	–	–	–	–	–
C[C@@H](O)c1nc(-c2cccc3c2N(S(=O)(=O)c2ccc(C(C)(C)C)cc2)Cc2ccc(C(F)(F)F)nc2N3)no1	0.4 degreeC.hr	18%	107%	0.134 µM	0.0019 µM	> 25 µM	0.069 µM	112%	0.9 µM·kg·h/mg	33 mL/min/kg	1.8 h	11%	–
CC(C)(O)c1nc(-c2cccc3c2N(S(=O)(=O)c2ccc(OC(F)F)cc2)Cc2ccc(C(F)(F)F)nc2N3)no1	3.31 degreeC.hr	22%	–	0.099 µM	0.018 µM	10 µM	–	94%	–	–	–	–	–
CC(C)(O)c1nc(-c2cccc3c2N(S(=O)(=O)c2ccc(OC(F)(F)F)cc2)Cc2ccc(C(F)(F)F)nc2N3)no1	5.6 degreeC.hr	17%	–	–	–	> 30 µM	–	106%	1.6 µM·kg·h/mg	–	–	–	Activity (Canis familiaris [14]): 4%; clearance [15]: 2.9 mL/min/kg; half-life [16]: 33 h; clearance [17]: 1.3 mL/min/kg; Activity (Mus musculus [18]): Dose-dependent effect; Activity (Mus musculus [19]): Dose-dependent effect; Activity (Rattus norvegicus [20]): 3.2%; Activity (Rattus norvegicus [21]): Non-toxic; Activity (Rattus norvegicus [22]): Active; Activity (Mus musculus [23]): inactive; Activity (Rattus norvegicus [24]): 4%; AUC/dose (Rhesus monkey): 12 µM·kg·h/mg; bioavailability [25]: 100%; half-life [26]: 18 h; bioavailability [27]: 58%; AUC/dose (Canis familiaris [28]): 10 µM·kg·h/mg
